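Tested at 5 concentrations; 48 h exposure; 96-well plates; endpoints linearly interpolated, else capped at highest concentration. Abbreviation: GI50, concentration required for 50% inhibition of growth. TGI is the concentration that stops growth completely.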
Key:
Assay in all cases: inhibition of tumour cell growth, NCI panel, 48 h
A498 renal = test system: A498 renal
NCI-H226 lung = test system: NCI-H226 lung
OVCAR-3 ovarian = test system: OVCAR-3 ovarian
NCI-H23 lung = test system: NCI-H23 lung
HL-60(TB) leukemia = test system: HL-60(TB) leukemia
NCI-H460 lung = test system: NCI-H460 lung
SNB-75 CNS = test system: SNB-75 CNS
UO-31 renal = test system: UO-31 renal
HCT-15 colon = test system: HCT-15 colon
BT-549 breast = test system: BT-549 breast

SMILES | TGI (A498 renal) [µM] | TGI (NCI-H226 lung) [µM] | TGI (OVCAR-3 ovarian) [µM] | TGI (NCI-H23 lung) [µM] | TGI (HL-60(TB) leukemia) [µM] | TGI (NCI-H460 lung) [µM] | TGI (SNB-75 CNS) [µM] | TGI (UO-31 renal) [µM] | TGI (HCT-15 colon) [µM] | TGI (BT-549 breast) [µM] | GI50 (A498 renal) [µM] | GI50 (NCI-H226 lung) [µM] | GI50 (OVCAR-3 ovarian) [µM] | GI50 (NCI-H23 lung) [µM] | GI50 (UO-31 renal) [µM] | GI50 (HCT-15 colon) [µM]
CCC1OC(=O)C(C)C(OC2CC(C)(O)C(O)C(C)O2)C(C)C(O)C(C)(O)CC(C)C(=O)C(C)C(O)C1C (stereo not drawn) | > 300 | > 300 | > 300 | > 300 | > 300 | > 300 | > 300 | > 300 | > 300 |  |  |  |  |  |  | 
O=C(Cl)c1cc([N+](=O)[O-])cc([N+](=O)[O-])c1 |  | > 100 |  | > 100 | > 100 | > 100 | > 100 | > 100 | > 100 |  |  |  |  |  |  | 
CCOC(=O)C1C(=O)C=C(c2cc(C)ccc2O)CC1c1cccc(Br)c1 (stereo not drawn) |  | 37.3 | 84.8 | 46.5 | 44.2 | 50.6 |  | 56.6 | 10.4 | 72.7 |  |  |  |  |  | 
Cc1[nH]c(=O)nc2c1C(=O)N(C(C)C)C(NC(C)C)S2 (stereo not drawn) | > 100 | > 100 | > 100 | > 100 | > 100 |  | > 100 | > 100 | > 100 |  |  |  |  |  |  | 
C[N+](C)(C)CC(=O)N/N=C(\C(=O)Nc1ccc(Cl)cc1)C1C(=O)N(c2ccccc2)N=C1N (stereo not drawn) | > 100 |  | > 100 | > 100 | > 100 | > 100 | > 100 | > 100 | > 100 |  |  |  |  |  |  | 
O=C(N/N=C/c1cc(-c2ccccc2Cl)c(-c2ccccc2Cl)o1)c1ccncc1 | > 100 | > 100 | > 100 | > 100 | > 100 |  | > 100 |  |  |  |  |  |  |  |  | 
COc1ccc(C2Oc3cc(OC)c(O)cc3[C@@H]2C)cc1 (stereo partly drawn) | > 100 | 92.6 | > 100 | > 100 | 47.4 | > 100 | 96.6 | 79.3 | 35.4 |  |  |  |  |  |  | 
CCC(c1ccc(N(C)C)cc1)C1NC(=S)NC1=O (stereo not drawn) | > 100 | > 100 |  | > 100 | 46.3 | > 100 | > 100 | > 100 | > 100 |  |  |  |  |  |  | 
COC[C@@H](N=Cc1ccc(OC)cc1)C(C)C |  |  |  | > 100 |  | > 100 | > 100 | > 100 | > 100 | > 100 |  |  |  |  |  | 
CC(C)OP(=O)(OC(C)C)c1ncn(-c2ccc([N+](=O)[O-])cc2)n1 | > 100 | > 100 | > 100 | > 100 | > 100 | > 100 | > 100 | > 100 | > 100 |  |  |  |  |  |  | 
CC(C)Oc1c(O)c2c3c(oc(=O)n3C=CC2c2ccccc2F)c1OC(C)C (stereo not drawn) | > 100 | > 100 | > 100 | > 100 | 44.3 | > 100 | > 100 | > 100 | > 100 |  |  |  |  |  |  | 
CC1(C)CC(=O)C2=C(C1)OC1=C(CC(C)(C)CC1=O)C2c1ccccc1Cl (stereo not drawn) | > 100 | > 100 | > 100 | > 100 | > 100 | > 100 | > 100 | 3.67 | > 100 |  |  |  |  |  |  | 
O=C(CCc1nnc2s/c(=C\c3ccc(Cl)cc3Cl)c(=O)n12)Nc1cc(Cl)c(Cl)cc1Cl | > 100 | > 100 | > 100 | > 100 | > 100 |  | > 100 | > 100 | > 100 |  | > 100 | > 100 | > 100 | > 100 | > 100 | > 100
Cc1cccc2ns[s+]c12 | > 100 | > 100 | > 100 | > 100 | > 100 | > 100 | > 100 | > 100 | 39.3 |  |  |  |  |  |  | 
Nc1nc(NC(=O)C2=NS(=O)(=O)c3cc(S(N)(=O)=O)c(Cl)cc3N2)n[nH]1 | > 100 | > 100 | > 100 | > 100 |  | > 100 | > 100 | > 100 | > 100 |  |  |  |  |  |  | 
COc1ccccc1C1C(Cl)C(=O)N1NC(=O)Cc1ccccc1 (stereo not drawn) |  | > 100 | > 100 | > 100 | > 100 | > 100 | > 100 | > 100 | > 100 |  |  |  |  |  |  | 
COC[C@H](Cc1ccccc1)N=Cc1ccccc1 |  |  |  | > 100 |  | > 100 | > 100 | > 100 | > 100 | > 100 |  |  |  |  |  | 
CC(C)(C)C(=O)C(C#N)C(=O)C(C)(C)C | > 100 | > 100 | > 100 | > 100 | > 100 | > 100 | > 100 | > 100 | > 100 |  |  |  |  |  |  | 
COC(=O)c1cc(CNCCc2c[nH]c3ccccc23)on1 | > 100 | > 100 | > 100 | > 100 | > 100 | > 100 | > 100 | > 100 | > 100 |  |  |  |  |  |  | 
CCCCCCCCCCCCCCCCCc1nc(C#N)c(N)o1 | > 100 |  |  |  | 69.6 |  | 70.2 |  | > 100 |  |  |  |  |  |  | 

Reference: PubChem BioAssay (NCI)
